Laboratory results reported in patent US7504231B2, “Method of alleviating chronic pain via peripheral inhibition of neurotransmitter synthesis” (The Board of Regents of the University of Oklahoma, priority 2001, dated 2009).
“Also recorded” adds a separate entry of the source.

Columns and labels:
[1] = test system: CFA induced inflammation of the rat hindpaw (mechanical allodynia); assay: Pressure sensitivity with von Frey hairs (paw pressure withdrawal threshold) in rats with CFA hindpaw inflammation; assay type: in vivo; details: for Paw pressure withdrawal thresholds (PPWT): CFA+saline 5-12 g, control 50-70 g
Experimental: (§1) For the experiments described in FIGS. 1-16, adult Sprague Dawley male rats, 200-300 g, were used. One set of normal rats was used to evaluate the effects of fixation on glutaminase immunohistochemical staining and for determining antisera dilutions. For all other rats, at day 0, a limited arthritis was induced in the right hindpaw by the intraplantar subcutaneous injection of 75-150 μl of complete Freund's adjuvant (CFA; Mycobacterium butyricum; Sigma) emulsified in saline (1:1). Controls were naive rats that received no injection or rats that received intraplantar injection of saline (75 μl). For peripheral glutaminase inhibition studies, the inflamed hindpaws were injected with glutaminase inhibitors (25 μl) at day 3 of inflammation. Some rats with inflammation received saline injections (25 μl) into the inflamed hindpaw at day 3. […] Efforts were made to minimize the number of animals used for this study.
Two to three days prior to and for the days following CFA injection, rats were tested for pressure sensitivity with von Frey hairs (Semmes-Weinstein monofilaments; Stoelting, Inc.). […] Monofilaments calibrated for specific forces were inserted through the holes underneath the box to probe the plantar surface of the hindpaw, 5 times in 3-4 sec intervals in different places on the plantar surface. Filaments with light force were used first, followed by filaments of increasing force. A filament was slowly applied perpendicularly to the plantar surface until bending of the filament occurred. […] The threshold force was defined as the filament (force) that caused the foot retraction without bending the monofilament three out of five times. Using a conversion table for the filaments, thresholds were reported as gram force.

[2] = test system: CFA induced inflammation of the rat hindpaw (thermal hyperalgesia); assay: Thermal latencies (Hargreaves' model) in rats with CFA hindpaw inflammation; assay type: in vivo
Experimental: as §1
Thermal latencies for the footpad plantar surface were determined with the Hargreaves' model (Ugo Basile, Italy). Rats were placed on an elevated glass plate (3 mm) in clear plastic boxes with air holes in the lids and allowed to acclimate for 10 minutes. Radiant heat was applied to the plantar surface of the hindpaw and the withdrawal latency recorded. A second test was followed after 5-10 minutes. All behavioral testing occurred at 21-22° C. with indirect lighting in the testing room. Differences between groups for pressure thresholds and thermal latencies were determined with a Student's t test (p<0.05 for significance) using InStat biological statistics program (GraphPad Software, Inc., San Diego).

[3] = test system: CFA induced inflammation of the rat hindpaw (mechanical allodynia); assay: Pressure sensitivity with von Frey hairs (paw pressure withdrawal threshold) in rats with CFA hindpaw inflammation; assay type: in vivo; details: for pressure responses after intrathecal inhibitor: injected intrathecally prior to initiation of CFA inflammation, tested 4 days, before ~70 gms, CFA ~10 gms
[4] = test system: GLU-IR fibers in the paw skin; assay: Glutamate immunohistochemistry of hindpaw skin after CFA inflammation; assay type: in vivo, rat; details: CFA + inhibitor, skin after 7 days; control very little, CFA+saline many intense fibers
Experimental: (§2) The skin from the hindpaws were also processed for GLU and GT immunohistochemistry after 7 days (FIG. 12). Control rats had very little GLU or GT-immunoreactive (IR) fibers in the paw skin. Skin from CFA+saline rats contained many intense GLU-IR and GT-IR fibers.
(§3) For immunohistochemical localization of GT, rats at 3, 7, and 10 days (n=6 CFA/time pt; n=4 control/time pt; n=3 additional controls) were anesthetized with sodium pentobarbital (90 mg/kg) and transcardially perfused with fixative: 0.2% paraformaldehyde (PFA), […] (PA) in 0.1M phosphate buffer, pH 7.4 [Miller et al, 1993, 2002]. Right and left L4DRG's and hindpaws were removed and placed overnight in fixative at 4° C.; the PFA concentration was increased to 2% for post-fixation [Miller et al, 1993, 2002]. Additional control rats (n=3) were perfused transcardially with 4% PFA in 0.1M Sorenson's phosphate buffer, pH 7.4. DRG's were removed and placed in fixative overnight at 4° C. All tissues were transferred to 20% sucrose in 0.1M Sorenson's phosphate buffer, pH 7.4 for 24-96 hr. at 4° C. The tissue was frozen, sectioned at 20 μm in a cryostat, thaw mounted onto gelatin coated slides, and dried for 1 hr. at 37° C. […]

[5] = test system: GT-IR fibers in the paw skin; assay: Glutaminase immunohistochemistry of hindpaw skin after CFA inflammation; assay type: in vivo, rat; details: CFA + inhibitor, skin after 7 days; control very little, CFA+saline many intense fibers
Experimental: as §2, §3

hindpaw of normal rats = assay: DON controls: pressure and thermal sensitivities after intraplantar injection in normal rats; assay type: in vivo, rat; details: DON 10 μMole/25 μl injected on day 3, no inflammation
Experimental: FIG. 10 illustrates DON controls.
Two to three days prior to and for the days following CFA injection, rats were tested for pressure sensitivity with von Frey hairs (Semmes-Weinstein monofilaments; Stoelting, Inc.). Rats were allowed to acclimate for five to ten minutes in a plastic box (25×25×25 cm) with 6 mm holes spaced every 6 mm [Pitcher et al, 1999a,b]. Monofilaments calibrated for specific forces were inserted through the holes underneath the box to probe the plantar surface of the hindpaw, 5 times in 3-4 sec intervals in different places on the plantar surface. Filaments with light force were used first, followed by filaments of increasing force. A filament was slowly applied perpendicularly to the plantar surface until bending of the filament occurred. […] The threshold force was defined as the filament (force) that caused the foot retraction without bending the monofilament three out of five times. […]
Thermal latencies for the footpad plantar surface were determined with the Hargreaves' model (Ugo Basile, Italy). […] Radiant heat was applied to the plantar surface of the hindpaw and the withdrawal latency recorded. […] Differences between groups for pressure thresholds and thermal latencies were determined with a Student's t test (p<0.05 for significance) using InStat biological statistics program (GraphPad Software, Inc., San Diego).

[6] = BB 200 μM/25 μl at day three following CFA inflammation
[7] = NEM 10 mM/25 μl at day three following CFA inflammation
[8] = P-CoA 2 mM/25 μl at day three following CFA inflammation

## Cc1c(C2(c3cc(C(C)C)c(O)c(Br)c3C)OS(=O)(=O)c3ccccc32)cc(C(C)C)c(O)c1Br [BB, bromothymol blue]
[1]; [6]
  long term pain relief to pressure (mechanical stimulation): pain relief on Day 5
[2]; [6]
  long term pain relief to heat (thermal stimulation): pain relief from Days 5-7 and at near normal levels from Days 6 and 7

## O=c1oc2ccccc2c(O)c1Cc1c(O)c2ccccc2oc1=O [DC, dicoumarol]
[2]; dicoumarol 15 μl @ 500 μM i.t. on days 0, 1 and 2, CFA at Day 0
  Thermal latencies (hyperalgesia) as inflammation progressed: less hyperalgesic
[3]; dicoumarol 15 μl @ 500 μM i.t. on days 0, 1 and 2, CFA at Day 0, data not shown
  pressure responses (allodynia) as inflammation progressed: less hyperalgesic and allodynic

## [N-]=[N+]=CC(=O)CC[C@H](N)C(=O)O [DON, 6-diazo-5-oxo-L-norleucine]
[4]
  GLU-IR fibers in hindpaw skin: reduced to near normal levels; also recorded: moderate numbers
[1]; CFA+DON rats, 25 μl into right paw after 2-3 days, from 6 hours through the duration of the experiment
  Paw pressure withdrawal thresholds (PPWT): 20 to 30 g
[1]; DON 0.1-10 μMole/25 μl
  dose response for pain relief from pressure, area under the curve Day 3 to Day 5: No differences in the amount of pain relief
[1]; DON 0.1-10 μMole/25 μl, three doses, at day three following CFA inflammation
  long term pain relief to pressure (mechanical stimulation): pain relief occurred for several days
[2]; DON 0.1-10 μMole/25 μl
  dose response for pain relief from thermal stimulation, area under the curve Day 3 to Day 5: most efficacious at the higher doses
[2]; DON 0.1-10 μMole/25 μl, all three doses, at day 3 after CFA inflammation
  long term pain relief to heat (thermal stimulation): pain relief occurred for several days
[2]; DON 0.1 and 1 μMole at day 3 after CFA inflammation
  pain relief to heat (thermal responses): pain relief to near normal levels for at least one day
[2]; DON 10 μMole at day 3 after CFA inflammation
  pain relief to heat (thermal responses): bringing thermal responses back to normal for two days
[5]
  GT-IR fibers in hindpaw skin: moderate numbers
Hindpaw of normal rats
  pressure sensitivity in normal rats: same as saline controls
  thermal sensitivity in normal rats: same as saline controls
[3]
  pressure responses after intrathecal inhibitor: near normal pressure responses for several days

## O=C(O)CF [FA, fluoroacetate]
[3]
  pressure responses after intrathecal inhibitor: near normal pressure responses for several days

## CS(=N)(=O)CC[C@H](N)C(=O)O (stereo partly drawn) [MSO, methionine sulfoximine]
[1]; MSO injected into inflamed hindpaw at Day 3, one-time, over several days, before inflammation ~70 gms, after ~10 gms
  pressure responses: ~50 gms
[2]; MSO injected into inflamed hindpaw at Day 3, one-time, before inflammation ~9 sec, after ~3 sec
  Thermal responses: near normal levels by day 6 through day 9
[3]
  pressure responses after intrathecal inhibitor: near normal pressure responses for several days

## CCN1C(=O)C=CC1=O [NEM, N-ethylmaleimide]
[4]
  GLU-IR fibers in hindpaw skin: reduced to near normal levels; also recorded: moderate numbers
[1]; CFA+NEM rats, after 48 hours
  Paw pressure withdrawal thresholds (PPWT): 20 to 25 g
[1]; [7]
  long term pain relief to pressure (mechanical stimulation): pain relief occurred for several days
[2]; [7]
  long term pain relief to heat (thermal stimulation): pain relief occurred to near normal levels at days four and six
[5]
  GT-IR fibers in hindpaw skin: moderate numbers

## CCCCCCCCCCCCCCCC(=O)SCCNC(=O)CCNC(=O)[C@H](O)C(C)(C)COP(=O)(O)OP(=O)(O)OC[C@H]1O[C@@H](n2cnc3c(N)ncnc32)[C@H](O)[C@@H]1OP(=O)(O)O [P-CoA, Palmitoyl Coenzyme A]
[1]; [8]
  long term pain relief to pressure (mechanical stimulation): pain relief from Days 4-7
[2]; [8]
  long term pain relief to heat (thermal stimulation): pain relief to near normal levels from Days 4-7
